Each compound was assayed against T1, STAT6 (Homo sapiens, UniProt P42226) (assay: Stat6 Degrader Assay (HiBiT based, HeLa LgBiT clone 4.14)). Details: HeLa LgBiT clone 4.14 HiBiT-STAT6, 4-24 h incubation; read-out: STAT6 degradation Emax.
T1 construct: These cells express endogenous STAT6; host or cells: HeLa LgBiT clone 4.14
T1 sequence (P42226 1-847): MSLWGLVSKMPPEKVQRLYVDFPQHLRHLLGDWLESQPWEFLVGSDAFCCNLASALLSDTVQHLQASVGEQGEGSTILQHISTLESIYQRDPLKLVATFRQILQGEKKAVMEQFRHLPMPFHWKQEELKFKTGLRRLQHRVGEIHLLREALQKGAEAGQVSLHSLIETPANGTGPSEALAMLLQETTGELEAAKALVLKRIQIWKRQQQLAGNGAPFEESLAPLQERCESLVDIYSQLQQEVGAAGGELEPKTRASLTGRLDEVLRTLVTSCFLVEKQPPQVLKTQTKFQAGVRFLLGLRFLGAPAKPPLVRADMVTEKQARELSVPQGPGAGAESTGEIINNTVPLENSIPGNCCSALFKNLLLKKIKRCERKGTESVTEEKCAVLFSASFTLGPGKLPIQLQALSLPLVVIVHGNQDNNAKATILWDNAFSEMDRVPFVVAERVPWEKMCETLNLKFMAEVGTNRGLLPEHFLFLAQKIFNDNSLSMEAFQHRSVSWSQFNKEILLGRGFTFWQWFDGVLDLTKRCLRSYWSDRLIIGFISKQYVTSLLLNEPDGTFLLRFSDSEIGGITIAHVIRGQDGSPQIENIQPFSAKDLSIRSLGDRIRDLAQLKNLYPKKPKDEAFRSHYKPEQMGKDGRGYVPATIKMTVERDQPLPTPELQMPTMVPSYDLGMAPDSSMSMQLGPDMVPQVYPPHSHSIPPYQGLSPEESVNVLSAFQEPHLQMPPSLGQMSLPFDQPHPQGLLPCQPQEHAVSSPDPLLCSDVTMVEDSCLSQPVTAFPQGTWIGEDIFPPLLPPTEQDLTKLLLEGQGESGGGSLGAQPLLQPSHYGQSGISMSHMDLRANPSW
Type: cell-based
Outline: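 HeLa LgBiT clone 4.14 cells with CRISPR HiBiT-tagged endogenous STAT6, 5000 cells/well, compound dosed then incubated 4-24 h at 37° C, 5% CO2. Nano-Glo substrate added, 0.5 h, luminescence read as non-degraded STAT6. Terfenadine 50 μM (cell kill) defines 100% degradation.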

Compound | Emax [%]
Cc1cc(C(=O)N2CCC(CN3CCC(Cc4ccc5c(c4)n(C)c(=O)n5C4CCC(=O)NC4=O)CC3)CC2)cc(F)c1C1CCN(Cc2cc3c(-n4ccc(N)cc4=O)ccnc3n2C)CC1 (centres unmarked) [Example 3u267, 3-(5-((1-((1-(4-(1-((4-(4-amino-2-oxopyridin-1 (2H)-yl)-1-methyl-1H-pyrrolo[2,3-b]pyridin-2-yl)methyl)piperidin-4-yl)-3-fluoro-5-methylbenzoyl)piperidin-4-yl)methyl)piperidin-4-yl)methyl)-3-methyl-2-oxo-2,3-dihydro-1H-benzo[d]imidazol-1-yl)piperidine-2,6-dione] | 50 to 60

Same assay, conditions: HeLa LgBiT clone 4.14 HiBiT-STAT6, 4-24 h incubation; values given for compounds with >80% Emax; geometric mean; read-out: STAT6 degradation DC50

Compound | DC50 [nM]
Cc1cc(C(=O)N2CCC(CN3CCN(Cc4ccc5c(c4)n(C4CC4)c(=O)n5C4CCC(=O)NC4=O)C[C@@H]3C)CC2)cc(F)c1C1=CCN([C@@H](C)c2cc3c(-n4ccc5c(c4=O)CCN5)ccnc3n2C)CC1 (stereo partly drawn) [Example 3u143, 3-(3-cyclopropyl-5-(((S)-4-((1-(3-fluoro-5-methyl-4-(1-((S)-1-(1-methyl-4-(4-oxo-1,2,3,4-tetrahydro-5H-pyrrolo[3,2-c]pyridin-5-yl)-1H-pyrrolo[2,3-b]pyridin-2-yl)ethyl)-1,2,3,6-tetrahydropyridin-4-yl)benzoyl)piperidin-4-yl)methyl)-3-methylpiperazin-1-yl)methyl)-2-oxo-2,3-dihydro-1H-benzo[d]imidazol-1-yl)piperidine-2,6-dione] | 0.7
CNc1ccn(-c2ccnc3c2cc([C@H](C)N2CC=C(c4c(C)cc(C(=O)N5CCC(CN6CCN(Cc7ccc8c(c7)n(C)c(=O)n8[C@@H]7CCC(=O)NC7=O)C[C@@H]6C)CC5)cc4F)CC2)n3C)c(=O)c1 (single isomer, unassigned) [Example 3u34] | 0.3

What follows are compounds tested on Eotaxin-3 release in human whole blood stimulated with IL-4 (assay: Human Whole Blood Eotaxin-3 Assay (IL-4 stimulated eotaxin-3 release)). Details: IL-4 stimulation, 48 h, values given for compounds with >80% Emax, geometric mean.
Type: cell-based
Description: Human Whole Blood Eotaxin-3 Assay
This was a human whole blood assay using recombinant human Interleukin 4 to stimulate the blood and measuring the ability of the test compounds to inhibit eotaxin-3 release. The biological activities of the test compounds have been tested in human whole blood stimulated with IL-4 measuring Eotaxin-3 release. The test compounds were added to 384 well clear flat-bottom plate in a 4-fold serial dilution in triplicates using a liquid handler. Human whole blood stabilized in lithium-heparin tubes was added in a volume of 65 μL per well, resulting in a final DMSO concentration of 0.5%. The plate is incubated for 2 h at 37° C. under 5% CO2/95% air. Subsequently, 5 μL of recombinant human IL-4 (R&D Systems, cat #204-ILB) was added to the wells to a final concentration of […]. The plate was incubated for 48 h at 37° C. under 5% CO2/95% air. The plate was spun down for 10 minutes at 500×g and 20 μL supernatant was harvested and transferred to a 384 well v-bottom plate using a liquid handler and stored at −20° C. until further analysis. 10 μL supernatant was used to measure the level of Eotaxin-3 (CCL26) using Human Eotaxin-3 MSD kit from Mesocsale (Cat #K251UEK-4). The assay was performed according to the manufacture instructions.
The data from the human whole blood eotaxin-3 assay is shown in FIG. 2 for Examples 3u208, 3u246, 3u118, 3u119, 3u120, and 3u74 (where the effect in % is plotted against the test concentration in M on a log scale).

Compound | EC50 [nM]
CNc1ccn(-c2ccnc3c2cc([C@H](C)N2CC=C(c4c(C)cc(C(=O)N5CCC(CN6CCN(c7cc8c(cc7F)n(C7CCC(=O)NC7=O)c(=O)n8C)CC6)CC5)cc4F)CC2)n3C)c(=O)c1F (stereo partly drawn) [Example 3u273, 3-(6-fluoro-5-(4-((1-(3-fluoro-4-(1-((S)-1-(4-(3-fluoro-4-(methylamino)-2-oxopyridin-1 (2H)-yl)-1-methyl-1H-pyrrolo[2,3-b]pyridin-2-yl)ethyl)-1,2,3,6-tetrahydropyridin-4-yl)-5-methylbenzoyl)piperidin-4-yl)methyl)piperazin-1-yl)-3-methyl-2-oxo-2,3-dihydro-1H-benzo[d]imidazol-1-yl)piperidine-2,6-dione] | 31.8
C[C@@H](c1cc2c(-n3cc(F)c4c(c3=O)CCN4)ccnc2n1C)N1CC=C(c2c(F)cc(C(=O)N3CCC(CN4CCN(Cc5ccc6c(c5)n(C)c(=O)n6C5CCC(=O)NC5=O)CC4)CC3)cc2F)CC1 (stereo partly drawn) [Example 3u83, 3-(5-((4-((1-(3,5-difluoro-4-(1-((S)-1-(4-(7-fluoro-4-oxo-1,2,3,4-tetrahydro-5H-pyrrolo[3,2-c]pyridin-5-yl)-1-methyl-1H-pyrrolo[2,3-b]pyridin-2-yl)ethyl)-1,2,3,6-tetrahydropyridin-4-yl)benzoyl)piperidin-4-yl)methyl)piperazin-1-yl)methyl)-3-methyl-2-oxo-2,3-dihydro-1H-benzo[d]-imidazol-1-yl)piperidine-2,6-dione] | 8
C[C@H]1CN(Cc2ccc3c(c2)n(C)c(=O)n3C2CCC(=O)NC2=O)CCN1CC1CCN(C(=O)c2cc(F)c(C3=CCN([C@@H](C)c4cc5c(-n6cc(F)c7c(c6=O)CCN7)ccnc5n4C)CC3)c(F)c2)CC1 (stereo partly drawn) [Example 3u8, 3-(5-(((S)-4-((1-(3,5-difluoro-4-(1-((S)-1-(4-(7-fluoro-4-oxo-1,2,3,4-tetrahydro-5H-pyrrolo[3,2-c]pyridin-5-yl)-1-methyl-1H-pyrrolo[2,3-b]pyridin-2-yl)ethyl)-1,2,3,6-tetrahydropyridin-4-yl)benzoyl)piperidin-4-yl)methyl)-3-methylpiperazin-1-yl)methyl)-3-methyl-2-oxo-2,3-dihydro-1H-benzo[d]imidazol-1-yl)piperidine-2,6-dione] | 5.9
C[C@@H](c1cc2c(-n3cc(F)c4c(c3=O)CCN4)ccnc2n1C)N1CC=C(c2c(F)cc(C(=O)N3CCC(CN4CCN(c5cc6c(cc5F)n(C5CCC(=O)NC5=O)c(=O)n6C)CC4)CC3)cc2F)CC1 (stereo partly drawn) [Example 3u269, 3-(5-(4-((1-(3,5-difluoro-4-(1-((S)-1-(4-(7-fluoro-4-oxo-1,2,3,4-tetrahydro-5H-pyrrolo[3,2-c]pyridin-5-yl)-1-methyl-1H-pyrrolo[2,3-b]pyridin-2-yl)ethyl)-1,2,3,6-tetrahydropyridin-4-yl)benzoyl)piperidin-4-yl)methyl)piperazin-1-yl)-6-fluoro-3-methyl-2-oxo-2,3-dihydro-1H-benzo[d]-imidazol-1-yl)piperidine-2,6-dione] | 96.3
CNc1cc(=O)n(-c2ccnc3c2cc([C@H](C)N2CC=C(c4c(C)cc(C(=O)N5CCC(CN6CCC(c7ccc8c(c7)C7(CC7)C(=O)N8C7CCC(=O)NC7=O)CC6)CC5)cc4F)CC2)n3C)cc1F (stereo partly drawn) [Example 3u282, 3-(5′-(1-((1-(3-fluoro-4-(1-((S)-1-(4-(5-fluoro-4-(methylamino)-2-oxopyridin-1 (2H)-yl)-1-methyl-1H-pyrrolo[2,3-b]pyridin-2-yl)ethyl)-1,2,3,6-tetrahydropyridin-4-yl)-5-methylbenzoyl)-piperidin-4-yl)methyl)piperidin-4-yl)-2′-oxospiro[cyclopropane-1,3′-indolin]-1′-yl)piperidine-2,6-dione] | 6.9
CNc1cc(=O)n(-c2ccnc3c2cc([C@H](C)N2CC=C(c4c(C)cc(C(=O)N5CCC(CN6CCN(c7cc8c(cc7F)N(C7CCC(=O)NC7=O)C(=O)C87CC7)CC6)CC5)cc4F)CC2)n3C)cc1F (stereo partly drawn) [Example 3u305, 3-(6′-fluoro-5′-(4-((1-(3-fluoro-4-(1-((S)-1-(4-(5-fluoro-4-(methylamino)-2-oxopyridin-1 (2H)-yl)-1-methyl-1H-pyrrolo[2,3-b]pyridin-2-yl)ethyl)-1,2,3,6-tetrahydropyridin-4-yl)-5-methylbenzoyl)piperidin-4-yl)methyl)piperazin-1-yl)-2′-oxospiro[cyclopropane-1,3′-indolin]-1′-yl)piperidine-2,6-dione] | 24.9
CNc1cc(=O)n(-c2ccnc3c2cc([C@H](C)N2CC=C(c4c(C)cc(C(=O)N5CCC(O)(CC6CCN(c7ccc8c(c7)C7(CC7)C(=O)N8C7CCC(=O)NC7=O)CC6)CC5)cc4F)CC2)n3C)cc1F (stereo partly drawn) [Example 3u283, 3-(5′-(4-((1-(3-fluoro-4-(1-((S)-1-(4-(5-fluoro-4-(methylamino)-2-oxopyridin-1 (2H)-yl)-1-methyl-1H-pyrrolo[2,3-b]pyridin-2-yl)ethyl)-1,2,3,6-tetrahydropyridin-4-yl)-5-methylbenzoyl)-4-hydroxypiperidin-4-yl)methyl)piperidin-1-yl)-2′-oxospiro[cyclopropane-1,3′-indolin]-1′-yl)piperidine-2,6-dione] | 126
CNc1cc(=O)n(-c2ccnc3c2cc([C@H](C)N2CC=C(c4c(C)cc(C(=O)N5CCC(CN6CCN(c7ccc8c(c7)C7(CC7)C(=O)N8[C@H]7CCC(=O)NC7=O)C[C@@H]6C)CC5)cc4F)CC2)n3C)cc1F (single isomer, unassigned) [Example 3u65] | 93.5

Source: patent US20250320206A1, “STAT6 DEGRADERS” (Gilead Sciences, Inc., priority 2024, published 2025)
